Reference: PubChem BioAssay (NCI)
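Method: 48-hour compound exposure of cells in 96-well plates, five concentrations, linear interpolation of endpoints. GI50: concentration for 50% inhibition of growth. TGI: total growth inhibition.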

What was measured:
Test in all cases: inhibition of tumour cell growth, NCI panel, 48 h
786-0 renal = test system: 786-0 renal
A498 renal = test system: A498 renal
A549 NSCLC = test system: A549 NSCLC
ACHN renal = test system: ACHN renal
BT-549 breast = test system: BT-549 breast
CAKI-1 renal = test system: CAKI-1 renal
CCRF-CEM leukemia = test system: CCRF-CEM leukemia
COLO 205 colon = test system: COLO 205 colon
DU-145 prostate = test system: DU-145 prostate
EKVX NSCLC = test system: EKVX NSCLC
HCC-2998 colon = test system: HCC-2998 colon
HCT-116 colon = test system: HCT-116 colon
HCT-15 colon = test system: HCT-15 colon
HL-60(TB) leukemia = test system: HL-60(TB) leukemia
HOP-62 NSCLC = test system: HOP-62 NSCLC
HOP-92 NSCLC = test system: HOP-92 NSCLC
HS 578T breast = test system: HS 578T breast
HT29 colon = test system: HT29 colon
IGROV1 ovarian = test system: IGROV1 ovarian
K-562 leukemia = test system: K-562 leukemia
KM12 colon = test system: KM12 colon
LOX IMVI melanoma = test system: LOX IMVI melanoma
M14 melanoma = test system: M14 melanoma
MALME-3M melanoma = test system: MALME-3M melanoma
MCF7 breast = test system: MCF7 breast
MDA-MB-231 breast = test system: MDA-MB-231 breast
MDA-MB-435 = test system: MDA-MB-435
MDA-MB-468 breast = test system: MDA-MB-468 breast
MOLT-4 leukemia = test system: MOLT-4 leukemia
NCI-H226 lung = test system: NCI-H226 lung
NCI-H23 lung = test system: NCI-H23 lung
NCI-H460 lung = test system: NCI-H460 lung
NCI-H522 lung = test system: NCI-H522 lung
OVCAR-3 ovarian = test system: OVCAR-3 ovarian
OVCAR-4 ovarian = test system: OVCAR-4 ovarian
OVCAR-5 ovarian = test system: OVCAR-5 ovarian
OVCAR-8 ovarian = test system: OVCAR-8 ovarian
PC-3 prostate = test system: PC-3 prostate
RPMI-8226 leukemia = test system: RPMI-8226 leukemia
RXF 393 renal = test system: RXF 393 renal
SF-268 CNS = test system: SF-268 CNS
SF-295 CNS = test system: SF-295 CNS
SF-539 CNS = test system: SF-539 CNS
SK-MEL-28 melanoma = test system: SK-MEL-28 melanoma
SK-MEL-5 melanoma = test system: SK-MEL-5 melanoma
SK-OV-3 ovarian = test system: SK-OV-3 ovarian
SN12C renal = test system: SN12C renal
SNB-19 CNS = test system: SNB-19 CNS
SNB-75 CNS = test system: SNB-75 CNS
SR leukemia = test system: SR leukemia
SW-620 colon = test system: SW-620 colon
T-47D breast = test system: T-47D breast
TK-10 renal = test system: TK-10 renal
U251 CNS = test system: U251 CNS
UACC-257 melanoma = test system: UACC-257 melanoma
UACC-62 melanoma = test system: UACC-62 melanoma
UO-31 renal = test system: UO-31 renal

`Cc1cccc(NC(=O)[C@]23CCC(C)(C)CC2C2=CCC4[C@@]5(C)C[C@@H](O)[C@H](O)[C@@](C)(CO)C5CC[C@@]4(C)[C@]2(C)CC3)c1` (some centres undefined) gave a GI50 (786-0 renal) of 14.6 µM, a TGI (786-0 renal) of 29.4 µM and a GI50 (A498 renal) of 15.7 µM. It also gave a TGI (A498 renal) of 29.4 µM, a GI50 (A549 NSCLC) of 22.2 µM and a TGI (A549 NSCLC) greater than 100 µM. For the same molecule, the GI50 (ACHN renal) was 12.4 µM, the TGI (ACHN renal) was 24.9 µM and the GI50 (BT-549 breast) was 14.3 µM. For the same molecule, the TGI (BT-549 breast) was 27.8 µM, the GI50 (CAKI-1 renal) was 6.63 µM and the TGI (CAKI-1 renal) was 21.9 µM. The GI50 (CCRF-CEM leukemia) was 9.29 µM, the TGI (CCRF-CEM leukemia) was 35.1 µM and the GI50 (COLO 205 colon) was 13.6 µM. For the same molecule, the TGI (COLO 205 colon) was 29.1 µM, the GI50 (DU-145 prostate) was 16.5 µM and the TGI (DU-145 prostate) was 39.1 µM. It also gave a GI50 (EKVX NSCLC) of 12.8 µM, a TGI (EKVX NSCLC) of 29.1 µM and a GI50 (HCC-2998 colon) of 13 µM. It also gave a TGI (HCC-2998 colon) of 26.2 µM, a GI50 (HCT-116 colon) of 10.7 µM and a TGI (HCT-116 colon) of 22.5 µM. It also gave a GI50 (HCT-15 colon) of 10.8 µM, a TGI (HCT-15 colon) of 23.4 µM and a GI50 (HL-60(TB) leukemia) of 15.2 µM. For the same molecule, the TGI (HL-60(TB) leukemia) was 55.9 µM, the GI50 (HOP-62 NSCLC) was 14.9 µM and the TGI (HOP-62 NSCLC) was 29.4 µM. The GI50 (HOP-92 NSCLC) was 8.64 µM, the TGI (HOP-92 NSCLC) was 23.1 µM and the GI50 (HS 578T breast) was 12.8 µM. The TGI (HS 578T breast) was 50.8 µM, the GI50 (HT29 colon) was 13.1 µM and the TGI (HT29 colon) was 27 µM. The GI50 (IGROV1 ovarian) was 12.2 µM, the TGI (IGROV1 ovarian) was 25.4 µM and the GI50 (K-562 leukemia) was 14.5 µM. For the same molecule, the TGI (K-562 leukemia) was 60.5 µM, the GI50 (KM12 colon) was 14.1 µM and the TGI (KM12 colon) was 30.8 µM. The GI50 (LOX IMVI melanoma) was 12.8 µM, the TGI (LOX IMVI melanoma) was 27.8 µM and the GI50 (M14 melanoma) was 13.7 µM. The TGI (M14 melanoma) was 27.3 µM, the GI50 (MALME-3M melanoma) was 14.7 µM and the TGI (MALME-3M melanoma) was 28.3 µM. It also gave a GI50 (MCF7 breast) of 5.71 µM, a TGI (MCF7 breast) of 19.2 µM and a GI50 (MDA-MB-231 breast) of 13.8 µM. The TGI (MDA-MB-231 breast) was 28.1 µM, the GI50 (MDA-MB-435) was 13.3 µM and the TGI (MDA-MB-435) was 26.5 µM. It also gave a GI50 (MDA-MB-468 breast) of 5.17 µM, a TGI (MDA-MB-468 breast) of 20.4 µM and a GI50 (MOLT-4 leukemia) of 7.87 µM. The TGI (MOLT-4 leukemia) was 52 µM, the GI50 (NCI-H226 lung) was 10.4 µM and the TGI (NCI-H226 lung) was 22.9 µM. For the same molecule, the GI50 (NCI-H23 lung) was 14.6 µM, the TGI (NCI-H23 lung) was 28.8 µM and the GI50 (NCI-H460 lung) was 12.5 µM. It also gave a TGI (NCI-H460 lung) of 25.6 µM, a GI50 (NCI-H522 lung) of 14.6 µM and a TGI (NCI-H522 lung) of 28.9 µM. It also gave a GI50 (OVCAR-3 ovarian) of 14 µM, a TGI (OVCAR-3 ovarian) of 28 µM and a GI50 (OVCAR-4 ovarian) of 11.5 µM. For the same molecule, the TGI (OVCAR-4 ovarian) was 25.2 µM, the GI50 (OVCAR-5 ovarian) was 13.3 µM and the TGI (OVCAR-5 ovarian) was 26.4 µM. It also gave a GI50 (OVCAR-8 ovarian) of 18.5 µM, a TGI (OVCAR-8 ovarian) of 60.2 µM and a GI50 (PC-3 prostate) of 5.16 µM. For the same molecule, the TGI (PC-3 prostate) was 20.5 µM, the GI50 (RPMI-8226 leukemia) was 6.25 µM and the TGI (RPMI-8226 leukemia) was 32 µM. For the same molecule, the GI50 (RXF 393 renal) was 3.77 µM, the TGI (RXF 393 renal) was 17 µM and the GI50 (SF-268 CNS) was 14.1 µM. The TGI (SF-268 CNS) was 42.3 µM, the GI50 (SF-295 CNS) was 10 µM and the TGI (SF-295 CNS) was 22.5 µM. The GI50 (SF-539 CNS) was 13.9 µM, the TGI (SF-539 CNS) was 28 µM and the GI50 (SK-MEL-28 melanoma) was 13.3 µM. The TGI (SK-MEL-28 melanoma) was 26.5 µM, the GI50 (SK-MEL-5 melanoma) was 11.9 µM and the TGI (SK-MEL-5 melanoma) was 24.3 µM. It also gave a GI50 (SK-OV-3 ovarian) of 14.5 µM, a TGI (SK-OV-3 ovarian) of 34.6 µM and a GI50 (SN12C renal) of 12.6 µM. For the same molecule, the TGI (SN12C renal) was 25.5 µM, the GI50 (SNB-19 CNS) was 18.4 µM and the TGI (SNB-19 CNS) was 47.4 µM. It also gave a GI50 (SNB-75 CNS) of 6.02 µM, a TGI (SNB-75 CNS) of 39.1 µM and a GI50 (SR leukemia) of 16.7 µM. It also gave a TGI (SR leukemia) greater than 100 µM, a GI50 (SW-620 colon) of 15 µM and a TGI (SW-620 colon) of 29.7 µM. For the same molecule, the GI50 (T-47D breast) was 7.45 µM, the TGI (T-47D breast) was 20.7 µM and the GI50 (TK-10 renal) was 16.5 µM. The TGI (TK-10 renal) was 35.8 µM, the GI50 (U251 CNS) was 14.9 µM and the TGI (U251 CNS) was 30.1 µM. For the same molecule, the GI50 (UACC-257 melanoma) was 15.3 µM, the TGI (UACC-257 melanoma) was 31.5 µM and the GI50 (UACC-62 melanoma) was 11.3 µM. It also gave a TGI (UACC-62 melanoma) of 23.7 µM, a GI50 (UO-31 renal) of 7.07 µM and a TGI (UO-31 renal) of 20.3 µM.
